According to PubChem BioAssay AID1259411 (Chemical Carcinogenesis Research Information System (CCRIS), 2018):
Active and inactive are the calls of the source. The rule behind the calls is not given here.

Test system: rodent carcinogenicity bioassays, tumor incidence
Assay: CCRIS carcinogenicity studies
How it was run: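 Archive of carcinogenicity, mutagenicity, tumor promotion and tumor inhibition results drawn from journals, NCI reports and other sources, expert-reviewed; covers 1985-2011 and is no longer updated.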

Question: Which carcinogen call (Species: MOUSE, Strain/Sex: B6C3F1/FEMALE, Route: ORAL, Dose: 0, 250, 500, 1000 PPM IN DRINKING WATER FOR DURATION OF STUDY (STUDY DURATION: 2 YR), Dose: 0, 250, 500, 1000 PPM IN DRINKING WATER FOR DURATION OF STUDY (STUDY DURATION: 2 YR)) does the source give for `CC(O)CCl` (stereo unspecified) here?
Answer: Its carcinogen call is “inactive; negative”.

Question: And the carcinogen call (Species: MOUSE, Strain/Sex: B6C3F1/MALE, Route: ORAL, Dose: 0, 250, 500, 1000 PPM IN DRINKING WATER FOR DURATION OF STUDY (STUDY DURATION: 2 YR), Dose: 0, 250, 500, 1000 PPM IN DRINKING WATER FOR DURATION OF STUDY (STUDY DURATION: 2 YR))?
Answer: The carcinogen call was “inactive; negative”.

Question: What about the carcinogen call (Species: RAT, Strain/Sex: F344/FEMALE, Route: ORAL, Dose: 10, 150, 325, 650 PPM IN DRINKING WATER FOR DURATION OF STUDY (STUDY DURATION: 2 YR), Dose: 10, 150, 325, 650 PPM IN DRINKING WATER FOR DURATION OF STUDY (STUDY DURATION: 2 YR)) of the same compound?
Answer: The carcinogen call was “inactive; negative”.

Question: What about the carcinogen call (Species: RAT, Strain/Sex: F344/MALE, Route: ORAL, Dose: 0, 150, 325, 650 PPM IN DRINKING WATER FOR DURATION OF STUDY (STUDY DURATION: 2 YR), Dose: 0, 150, 325, 650 PPM IN DRINKING WATER FOR DURATION OF STUDY (STUDY DURATION: 2 YR)) of the same compound?
Answer: The carcinogen call was “inactive; negative”.

Question: `CBr` was tested. Which carcinogen call (Species: DOG, Strain/Sex: BEAGLE/FEMALE, Route: ORAL, Dose: 0, 0.07, 0.12, 0.27 MG/KG/D IN DIET FOR 1 YR (STUDY DURATION: 1 YR), Dose: 0, 0.07, 0.12, 0.27 MG/KG/D IN DIET FOR 1 YR (STUDY DURATION: 1 YR)) did it give?
Answer: The carcinogen call was “inactive; negative”.

Question: What about the carcinogen call (Species: DOG, Strain/Sex: BEAGLE/MALE, Route: ORAL, Dose: 0, 0.06, 0.13, 0.28 MG/KG/D IN DIET FOR 1 YR (STUDY DURATION: 1 YR), Dose: 0, 0.06, 0.13, 0.28 MG/KG/D IN DIET FOR 1 YR (STUDY DURATION: 1 YR)) of the same compound?
Answer: Its carcinogen call is “inactive; negative”.

Question: And the carcinogen call (Species: MOUSE, Strain/Sex: B6C3F1/FEMALE, Route: INHALATION, Dose: 0, 10, 33, 100 PPM 6 HR/D 5 D/WK FOR UP TO 103 WK, DOSING IN 100 PPM GROUP DISCONTINUED AFTER 20 WK (STUDY DURATION: 104, Dose: 0, 10, 33, 100 PPM 6 HR/D 5 D/WK FOR UP TO 103 WK, DOSING IN 100 PPM GROUP DISCONTINUED AFTER 20 WK (STUDY DURATION: 104)?
Answer: The carcinogen call was “inactive; negative”.

Question: And the carcinogen call (Species: MOUSE, Strain/Sex: B6C3F1/MALE, Route: INHALATION, Dose: 0, 10, 33, 100 PPM 6 HR/D 5 D/WK FOR UP TO 103 WK, DOSING IN 100 PPM GROUP DISCONTINUED AFTER 20 WK (STUDY DURATION: 104, Dose: 0, 10, 33, 100 PPM 6 HR/D 5 D/WK FOR UP TO 103 WK, DOSING IN 100 PPM GROUP DISCONTINUED AFTER 20 WK (STUDY DURATION: 104)?
Answer: Its carcinogen call is “inactive; negative”.

Question: What about the carcinogen call (Species: MOUSE, Strain/Sex: BDF1/FEMALE, Route: INHALATION, Dose: 0, 4, 16, 64 PPM 6 HR/D 5 D/WK FOR 104 WK (STUDY DURATION: 105 WK), Dose: 0, 4, 16, 64 PPM 6 HR/D 5 D/WK FOR 104 WK (STUDY DURATION: 105 WK)) of the same compound?
Answer: The carcinogen call was “inactive; negative”.

Question: What about the carcinogen call (Species: MOUSE, Strain/Sex: BDF1/MALE, Route: INHALATION, Dose: 0, 4, 16, 64 PPM 6 HR/D 5 D/WK FOR 104 WK (STUDY DURATION: 105 WK), Dose: 0, 4, 16, 64 PPM 6 HR/D 5 D/WK FOR 104 WK (STUDY DURATION: 105 WK)) of the same compound?
Answer: The carcinogen call was “inactive; negative”.

Question: And the carcinogen call (Species: RAT, Strain/Sex: F344/FEMALE, Route: INHALATION, Dose: 0, 4, 20, 100 PPM 6 HR/D 5 D/WK FOR 104 WK (STUDY DURATION: 105 WK), Dose: 0, 4, 20, 100 PPM 6 HR/D 5 D/WK FOR 104 WK (STUDY DURATION: 105 WK))?
Answer: The carcinogen call was “inactive; negative”.

Question: What about the carcinogen call (Species: RAT, Strain/Sex: F344/FEMALE, Route: ORAL) of the same compound?
Answer: Its carcinogen call is “inactive; negative”.

Question: And the carcinogen call (Species: RAT, Strain/Sex: F344/MALE, Route: INHALATION, Dose: 0, 4, 20, 100 PPM 6 HR/D 5 D/WK FOR 104 WK (STUDY DURATION: 105 WK), Dose: 0, 4, 20, 100 PPM 6 HR/D 5 D/WK FOR 104 WK (STUDY DURATION: 105 WK))?
Answer: Its carcinogen call is “inactive; negative”.

Question: And the carcinogen call (Species: RAT, Strain/Sex: F344/MALE, Route: ORAL)?
Answer: Its carcinogen call is “inactive; negative”.

Question: And the carcinogen call (Species: RAT, Strain/Sex: WISTAR/FEMALE, Route: GAVAGE, Dose: 0.4, 2, 10, 50 MG/KG IN ARACHIS OIL 5/WK FOR 13 WK, Dose: 0.4, 2, 10, 50 MG/KG IN ARACHIS OIL 5/WK FOR 13 WK, Tumor Site: Type of Lesion: FORESTOMACH: CARCINOMA)?
Answer: The carcinogen call was “active; positive”.

Question: And the carcinogen call (Species: RAT, Strain/Sex: WISTAR/FEMALE, Route: INHALATION, Dose: 0, 3, 30, 90 PPM 6 HR/D 5 D/WK FOR 29 MO (STUDY DURATION: 29 MO), Dose: 0, 3, 30, 90 PPM 6 HR/D 5 D/WK FOR 29 MO (STUDY DURATION: 29 MO))?
Answer: The carcinogen call was “inactive; negative”.

Question: What about the carcinogen call (Species: RAT, Strain/Sex: WISTAR/MALE, Route: GAVAGE, Dose: 0.4, 2, 10, 50 MG/KG IN ARACHIS OIL 5/WK FOR 13 WK, Dose: 0.4, 2, 10, 50 MG/KG IN ARACHIS OIL 5/WK FOR 13 WK, Tumor Site: Type of Lesion: FORESTOMACH: PAPILLOMA, CARCINOMA) of the same compound?
Answer: Its carcinogen call is “active; positive”.

Question: And the carcinogen call (Species: RAT, Strain/Sex: WISTAR/MALE, Route: INHALATION, Dose: 0, 3, 30, 90 PPM 6 HR/D 5 D/WK FOR 29 MO (STUDY DURATION: 29 MO), Dose: 0, 3, 30, 90 PPM 6 HR/D 5 D/WK FOR 29 MO (STUDY DURATION: 29 MO))?
Answer: The carcinogen call was “inactive; negative”.

Question: What does the source list for `Cc1ccc([N+](=O)[O-])cc1`?
Answer: carcinogen call (Species: MOUSE, Strain/Sex: B6C3F1/FEMALE, Route: ORAL, Dose: 0, 1250, 2500, 5000 PPM FOR 105-106 WK (STUDY DURATION: 105-106 WK), Dose: 0, 1250, 2500, 5000 PPM FOR 105-106 WK (STUDY DURATION: 105-106 WK)): inactive; negative; carcinogen call (Species: MOUSE, Strain/Sex: B6C3F1/MALE, Route: ORAL, Dose: 0, 1250, 2500, 5000 PPM FOR 105-106 WK (STUDY DURATION: 105-106 WK), Dose: 0, 1250, 2500, 5000 PPM FOR 105-106 WK (STUDY DURATION: 105-106 WK), Tumor Site: Type of Lesion: LUNG: ALVEOLAR/BRONCHIOLAR ADENOMA OR CARCINOMA): equivocal; carcinogen call (Species: RAT, Strain/Sex: F344/FEMALE, Route: ORAL, Dose: 0, 1250, 2500, 5000 PPM FOR 105-106 WK (STUDY DURATION: 105-106 WK), Dose: 0, 1250, 2500, 5000 PPM FOR 105-106 WK (STUDY DURATION: 105-106 WK), Tumor Site: Type of Lesion: CLITORAL GLAND: ADENOMA OR CARCINOMA): active; positive; carcinogen call (Species: RAT, Strain/Sex: F344/MALE, Route: ORAL, Dose: 0, 1250, 2500, 5000 PPM FOR 105-106 WK (STUDY DURATION: 105-106 WK), Dose: 0, 1250, 2500, 5000 PPM FOR 105-106 WK (STUDY DURATION: 105-106 WK), Tumor Site: Type of Lesion: SKIN (SUBCUTANEOUS):FIBROMA, FIBROMA OR FIBROSARCOMA): equivocal

Question: Which carcinogen call (Species: MOUSE, Strain/Sex: B6C3F1/FEMALE, Route: ORAL, Dose: 0, 25000, 50000 PPM IN DIET, Dose: 0, 25000, 50000 PPM IN DIET) does the source give for `Nc1ccccc1C(=O)O` here?
Answer: Its carcinogen call is “inactive; negative”.

Question: And the carcinogen call (Species: MOUSE, Strain/Sex: B6C3F1/MALE, Route: ORAL, Dose: 0, 25000, 50000 PPM IN DIET, Dose: 0, 25000, 50000 PPM IN DIET)?
Answer: Its carcinogen call is “inactive; negative”.

Question: What about the carcinogen call (Species: RAT, Strain/Sex: F344/FEMALE, Route: ORAL, Dose: 0, 15000, 30000 PPM IN DIET, Dose: 0, 15000, 30000 PPM IN DIET) of the same compound?
Answer: The carcinogen call was “inactive; negative”.

Question: What about the carcinogen call (Species: RAT, Strain/Sex: F344/MALE, Route: ORAL, Dose: 0, 15000, 30000 PPM IN DIET, Dose: 0, 15000, 30000 PPM IN DIET) of the same compound?
Answer: Its carcinogen call is “inactive; negative”.
